Assay results as given in patent US10975068B2, “6-aminopyridin-3-yl thiazoles as modulators of RORγT” (Janssen Pharmaceutica NV, priority 2016, dated 2021).

Molecular target: human RORγt ligand binding domain (RORγt LBD) (Homo sapiens (Human), UniProt P51449)
Assay: RORγt ThermoFluor® assay (thermal shift binding)
Details: read-out: ThermoFluor® Assay, Kd
Summary of the method: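 Binding was inferred from thermal stabilisation (ΔTm) of the E. coli-expressed RORγt LBD (0.065 mg/mL), monitored by 1,8-ANS (60 μM) emission at 500 nm during a 1 °C/min ramp. Buffer was Hepes 100 mM pH 7.0 with NaCl, GSH and Tween-20.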

Chain of human RORγt ligand binding domain (RORγt LBD) (P51449 other isoform, or with tags, fused parts or gaps): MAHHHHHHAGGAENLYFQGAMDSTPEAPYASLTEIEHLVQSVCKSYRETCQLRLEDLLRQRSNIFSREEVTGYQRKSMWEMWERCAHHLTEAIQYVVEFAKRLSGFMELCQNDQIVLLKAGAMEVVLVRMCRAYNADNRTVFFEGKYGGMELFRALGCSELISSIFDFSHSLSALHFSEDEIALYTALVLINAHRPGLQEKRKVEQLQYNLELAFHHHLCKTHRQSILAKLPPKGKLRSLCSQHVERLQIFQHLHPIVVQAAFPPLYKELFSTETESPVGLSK

Row | SMILES | Kd [nM]
1 | CC(C)(O)CNC(=O)c1nc(C(=O)N2C3CCC2CC3)c(-c2cnc(NCC(C)(C)C(F)(F)F)cc2C(F)(F)F)s1 [Example 122, 4-((1s,4s)-7-Azabicyclo[2.2.1]heptane-7-carbonyl)-N-(2-hydroxy-2-methylpropyl)-5-(6-((3,3,3-trifluoro-2,2-dimethylpropyl)amino)-4-(trifluoromethyl)pyridin-3-yl)thiazole-2-carboxamide] | 1.7
2 | C[C@H](Nc1cc(C(F)F)c(-c2sc(C(=O)NCC(C)(C)O)nc2C(=O)N2CC(F)(F)C[C@@H]2C)cn1)C(F)(F)F [Example 135] | 3.5
3 | C[C@H]1CCCN1C(=O)c1nc(C(=O)NCC(C)(C)O)sc1-c1cnc(NC(C)(C)C)cc1C(F)(F)F [Example 52, (S)-5-(6-(tert-Butylamino)-4-(trifluoromethyl)pyridin-3-yl)-N-(2-hydroxy-2-methylpropyl)-4-(2-methylpyrrolidine-1-carbonyl)thiazole-2-carboxamide] | 1.2
4 | C[C@H](Nc1cc(C(F)(F)F)c(-c2sc(C(=O)NCC(C)(C)O)nc2C(=O)N2CCC[C@@H]2C)cn1)C(F)(F)F [Example 78, N-(2-Hydroxy-2-methylpropyl)-4-((S)-2-methylpyrrolidine-1-carbonyl)-5-(4-(trifluoromethyl)-6-(((S)-1,1,1-trifluoropropan-2-yl)amino)pyridin-3-yl)thiazole-2-carboxamide] | 3.2
5 | C[C@H](Nc1cc(C(F)(F)F)c(-c2sc(C(=O)NCC(C)(C)O)nc2C(=O)N2C3CCC2CC3)cn1)C1CC1 [Example 51, 4-((1s,4s)-7-Azabicyclo[2.2.1]heptane-7-carbonyl)-5-(6-(((S)-1-cyclopropylethyl)amino)-4-(trifluoromethyl)pyridin-3-yl)-N-(2-hydroxy-2-methylpropyl)thiazole-2-carboxamide] | 3.2
6 | C[C@H](Nc1cc(C(F)(F)F)c(-c2sc(C(=O)NCC(C)(C)O)nc2C(=O)N2CCC[C@@H]2C)cn1)C1CC1 [Example 40, 5-(6-(((S)-1-Cyclopropylethyl)amino)-4-(trifluoromethyl)pyridin-3-yl)-N-(2-hydroxy-2-methylpropyl)-4-((S)-2-methylpyrrolidine-1-carbonyl)thiazole-2-carboxamide] | 2.8
7 | C[C@H]1CC(F)(F)CN1C(=O)c1nc(C(=O)NCC(C)(C)O)sc1-c1cnc(NCC(C)(C)C)cc1C(F)F [Example 115, (S)-4-(4,4-Difluoro-2-methylpyrrolidine-1-carbonyl)-5-(4-(difluoromethyl)-6-(neopentylamino)pyridin-3-yl)-N-(2-hydroxy-2-methylpropyl)thiazole-2-carboxamide] | 1.9
8 | CC(C)(C)CNc1cc(C(F)F)c(-c2sc(C(=O)NCC(C)(C)O)nc2C(=O)N2C3CCC2CC3)cn1 [Example 116, 4-((1s,4s)-7-Azabicyclo[2.2.1]heptane-7-carbonyl)-5-(4-(difluoromethyl)-6-(neopentylamino)pyridin-3-yl)-N-(2-hydroxy-2-methylpropyl)thiazole-2-carboxamide] | 3.6
9 | C[C@H]1CCCN1C(=O)c1nc(C(=O)NCc2n[nH]c(=O)o2)sc1-c1cnc(NC(C)(C)C)cc1C(F)(F)F [Example 305, (S)-5-(6-(tert-Butylamino)-4-(trifluoromethyl)pyridin-3-yl)-4-(2-methylpyrrolidine-1-carbonyl)-N-((5-oxo-4,5-dihydro-1,3,4-oxadiazol-2-yl)methyl)thiazole-2-carboxamide] | 4.9
10 | CC[C@H](Nc1cc(C(F)(F)F)c(-c2sc(C(=O)NCC(C)(C)O)nc2C(=O)N2CCC[C@@H]2C)cn1)C1CC1 (relative stereo) [Example 128, 5-(6-(((S*)-1-Cyclopropylpropyl)amino)-4-(trifluoromethyl)pyridin-3-yl)-N-(2-hydroxy-2-methylpropyl)-4-((S)-2-methylpyrrolidine-1-carbonyl)thiazole-2-carboxamide] | 2.6
11 | C[C@H]1CCCN1C(=O)c1nc(C(=O)NCC(C)(C)O)sc1-c1cnc(NC2CCCC2)cc1C(F)(F)F [Example 38, (S)-5-(6-(Cyclopentylamino)-4-(trifluoromethyl)pyridin-3-yl)-N-(2-hydroxy-2-methylpropyl)-4-(2-methylpyrrolidine-1-carbonyl)thiazole-2-carboxamide] | 1.8
12 | CC(C)(O)CNC(=O)c1nc(C(=O)N2C3CCC2CC3)c(-c2cnc(NC3(C)CCC3)cc2C(F)F)s1 [Example 169, 4-((1s,4s)-7-Azabicyclo[2.2[1]heptane-7-carbonyl)-5-(4-(difluoromethyl)-6-((1-methylcyclobutyl)amino)pyridine-3-yl)-N-(2-hydroxy-2-methylpropyl))thiazole-2-carboxamide] | 2.7

More lines, in order of falling Kd, values ahead:

Row | Kd [nM] | SMILES
13 | 1.8 | CC[C@H](Nc1cc(C(F)(F)F)c(-c2sc(C(=O)NCC(C)(C)O)nc2C(=O)N2CCC[C@@H]2C)cn1)C(F)(F)F [Example 111, N-(2-Hydroxy-2-methylpropyl)-4-((S)-2-methylpyrrolidine-1-carbonyl)-5-(6-(((S)-1,1,1-trifluorobutan-2-yl)amino)-4-(trifluoromethyl)pyridin-3-yl)thiazole-2-carboxamide]
14 | 1.7 | C[C@H](NC(=O)c1nc(C(=O)N2CC(F)(F)C[C@@H]2C)c(-c2cnc(N[C@@H](C)C(F)(F)F)cc2C(F)F)s1)C(C)(C)O [Example 197]
15 | 1.5 | C[C@H](Nc1cc(C(F)F)c(-c2sc(C(=O)NCC(C)(C)O)nc2C(=O)N2CCCC[C@@H]2C)cn1)C(F)(F)F [Example 144]
16 | 1.4 | C[C@H](Nc1cc(C(F)(F)F)c(-c2sc(C(=O)NCC(C)(C)O)nc2C(=O)N2CC(F)(F)C[C@@H]2C)cn1)C1CC1 [Example 142, 5-(6-(((S)-1-Cyclopropylethyl)amino)-4-(trifluormethyl)pyridin-3-yl)-4-((S)-4,4-difluoro-2-methylpyrrolidine-1-carbonyl)-N-(2-hydroxy-2-methylpropyl)thiazole-2-carboxamide]
17 | 1.4 | CC[C@H](Nc1cc(C(F)F)c(-c2sc(C(=O)NCC(C)(C)O)nc2C(=O)N2CC(F)(F)C[C@@H]2C)cn1)C(F)(F)F [Example 90, 4-((S)-4,4-Difluoro-2-methylpyrrolidine-1-carbonyl)-5-(4-(difluoromethyl)-6-(((S)-1,1,1-trifluorobutan-2-yl)amino)pyridin-3-yl)-N-(2-hydroxy-2-methylpropyl)thiazole-2-carboxamide]
18 | 1.3 | C[C@H]1CCCN1C(=O)c1nc(C(=O)NCC(C)(C)O)sc1-c1cnc(NCC(C)(C)C)cc1C(F)(F)F [Example 87, (S)—N-(2-Hydroxy-2-methylpropyl)-4-(2-methylpyrrolidine-1-carbonyl)-5-(6-(neopentylamino)-4-(trifluoromethyl)pyridin-3-yl)thiazole-2-carboxamide]
19 | 1.1 | C[C@H](NC(=O)c1nc(C(=O)N2CCC[C@@H]2C)c(-c2cnc(NC(C)(C)C)cc2C(F)(F)F)s1)C(C)(C)O [Example 336, 5-[6-(tert-Butylamino)-4-(trifluoromethyl)-3-pyridyl]-N-[(1S)-2-hydroxy-1,2-dimethyl-propyl]-4-[(2S)-2-methylpyrrolidine-1-carbonyl]thiazole-2-carboxamide]
20 | 0.74 | C[C@H]1CCCCN1C(=O)c1nc(C(=O)NCC(C)(C)O)sc1-c1cnc(NC2CCCC2)cc1C(F)F [Example 41, (S)-5-(6-(Cyclopentylamino)-4-(difluoromethyl)pyridin-3-yl)-N-(2-hydroxy-2-methylpropyl)-4-(2-methylpiperidine-1-carbonyl)thiazole-2-carboxamide]
21 | 0.68 | C[C@H]1CC(F)(F)CN1C(=O)c1nc(C(=O)NCC(C)(C)O)sc1-c1cnc(NC2(C)CCC2)cc1C(F)(F)F [Example 141, (S)-4-(4,4-Difluoro-2-methylpyrrolidine-1-carbonyl)-N-(2-hydroxy-2-methylpropyl)-5-(6-((1-methylcyclobutyl)amino)-4-(trifluoromethyl)pyridin-3-yl)thiazole-2-carboxamide]
22 | 0.65 | C[C@H](Nc1cc(C(F)F)c(-c2sc(C(=O)NCC(C)(C)O)nc2C(=O)N2CCCC[C@@H]2C)cn1)C1CC1 [Example 37, 5-(6-(((S)-1-Cyclopropylethyl)amino)-4-(difluoromethyl)pyridin-3-yl)-N-(2-hydroxy-2-methylpropyl)-4-((S)-2-methylpiperidine-1-carbonyl)thiazole-2-carboxamide]
23 | 0.52 | C[C@H]1CC(F)(F)CN1C(=O)c1nc(C(=O)NCC(C)(C)O)sc1-c1cnc(NC2(C(F)(F)F)CCC2)cc1C(F)F [Example 124, (S)-4-(4,4-Difluoro-2-methylpyrrolidine-1-carbonyl)-5-(4-(difluoromethyl)-6-((1-(trifluoromethyl)cyclobutyl)amino)pyridin-3-yl)-N-(2-hydroxy-2-methylpropyl)thiazole-2-carboxamide]
24 | 0.52 | C[C@H]1CCCCN1C(=O)c1nc(C(=O)NCC(C)(C)O)sc1-c1cnc(NC2CCCC2)cc1C(F)(F)F [Example 27, (S)-5-(6-(Cyclopentylamino)-4-(trifluoromethyl)pyridin-3-yl)-N-(2-hydroxy-2-methylpropyl)-4-(2-methylpiperidine-1-carbonyl)thiazole-2-carboxamide]
25 | 0.5 | C[C@H](Nc1cc(C(F)(F)F)c(-c2sc(C(=O)NCC(C)(C)O)nc2C(=O)N2CCCC[C@@H]2C)cn1)C(F)(F)F [Example 47, N-(2-Hydroxy-2-methylpropyl)-4-((S)-2-methylpiperidine-1-carbonyl)-5-(4-(trifluoromethyl)-6-(((S)-1,1,1-trifluoropropan-2-yl)amino)pyridin-3-yl)thiazole-2-carboxamide]
26 | 0.17 | C[C@H]1CCCCN1C(=O)c1nc(C(=O)NCC(C)(C)O)sc1-c1cnc(NCC(C)(C)C)cc1C(F)(F)F [Example 86, (S)—N-(2-Hydroxy-2-methylpropyl)-4-(2-methylpiperidine-1-carbonyl)-5-(6-(neopentylamino)-4-(trifluoromethyl)pyridin-3-yl)thiazole-2-carboxamide]
